PubChem BioAssay (NCI)
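Test compounds were applied to cells in 96-well plates for 48 hours at 5 doses. At the GI50, growth is halved. TGI is the concentration that stops growth completely.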

Tests used:
Experiment in all cases: NCI tumour cell line growth inhibition, 48 h
OVCAR-8 ovarian = test system: OVCAR-8 ovarian
HCC-2998 colon = test system: HCC-2998 colon
SW-620 colon = test system: SW-620 colon
MCF7 breast = test system: MCF7 breast
EKVX NSCLC = test system: EKVX NSCLC
ACHN renal = test system: ACHN renal
IGROV1 ovarian = test system: IGROV1 ovarian
UO-31 renal = test system: UO-31 renal
CCRF-CEM leukemia = test system: CCRF-CEM leukemia
KM12 colon = test system: KM12 colon

Row | Compound | TGI (OVCAR-8 ovarian) [µM] | TGI (HCC-2998 colon) [µM] | TGI (SW-620 colon) [µM] | TGI (MCF7 breast) [µM] | TGI (EKVX NSCLC) [µM] | TGI (ACHN renal) [µM] | TGI (IGROV1 ovarian) [µM] | TGI (UO-31 renal) [µM] | TGI (CCRF-CEM leukemia) [µM] | TGI (KM12 colon) [µM] | GI50 (OVCAR-8 ovarian) [µM] | GI50 (HCC-2998 colon) [µM] | GI50 (SW-620 colon) [µM] | GI50 (MCF7 breast) [µM] | GI50 (EKVX NSCLC) [µM] | GI50 (ACHN renal) [µM] | GI50 (IGROV1 ovarian) [µM] | GI50 (UO-31 renal) [µM] | GI50 (CCRF-CEM leukemia) [µM] | GI50 (KM12 colon) [µM]
1 | COc1ccc(CCN2C(=O)C=CC2=O)cc1OC | 44.1 | 34.8 | 5.65 | 39.7 | 41.1 | 3.17 | 36.7 | 3.05 | 2.93 | 40.8 |  |  |  |  |  |  |  |  |  | 
2 | O=c1c2cccc(Cl)c2sc2c(NCCCNCCO)nc3ccccc3c12 | 11.9 | 3.02 | 2.95 | 2.66 | 17.5 | 2.8 | 6.86 | 3.95 | 8.39 | 3.73 | 2.91 | 1.62 | 1.41 | 1.13 | 3.4 | 1.44 | 0.941 | 1.02 | 2.34 | 1.87
3 | N#C/C(=C\c1ccc(-c2ccc(Cl)cc2)o1)C(=O)Nc1ncc(Cc2ccc(Cl)cc2)s1 | 5.76 | > 100 |  | > 100 | 5.16 | 3.43 | 5.99 | 7.87 | > 100 | 6.56 | 1.81 | 3.63 |  | 2.51 | 2 | 1.59 | 2.2 | 2.48 | 2.21 | 1.83
4 | Cn1c2ccccc2c(=S)c2ccccc21 | > 100 | > 100 | > 100 | > 100 | > 100 | > 100 | > 100 | > 100 | > 100 | > 100 |  |  |  |  |  |  |  |  |  | 
5 | Cn1cc(-c2nc(-c3c[nH]c4ncccc34)cs2)c2cc(F)ccc21 | > 25.3 | 7.59 | 9.73 | 6.53 | 10.5 | 14.7 | 13.1 | 8.12 | > 52.6 | 5.16 | 2.96 | 1.98 | 2.67 | 1.13 | 0.6 | 3.21 | 2.51 | 2.06 | 3.04 | 0.83
6 | Cc1nc(Cl)nc(Cl)c1C | > 100 | > 100 | > 100 | > 100 | > 100 | > 100 | > 100 | > 100 | > 100 | > 100 |  |  |  |  |  |  |  |  |  | 
7 | C/C=C(\C)C(=O)N[C@H]1CC[C@]2(C)C3CC[C@@]4(C)C(CC[C@@H]4C(C)N(C)C)C3CCC2[C@H]1OC(C)=O (some centres not stated) | > 25.8 | 2.97 | 3.05 | 2.92 | 8.62 | 4.2 | 8.86 | 2.54 | 6.19 | 5.15 | 3.38 | 1.56 | 1.53 | 1.27 | 2.06 | 1.98 | 2.38 | 1.24 | 1.97 | 2
8 | COc1cc2nc3sc(C(=O)Nc4ccc(C(=O)OC(C)C)cc4)c(C(=O)Nc4ccc(Cl)cc4C)n3c(=O)c2cc1OC | > 100 | > 100 | 25 | > 100 | > 100 | > 100 | 17.8 | > 100 | 30.2 | 13.3 | 12.6 | 9.5 | 1.88 | 14.1 | 22.8 | 23.8 | 0.69 | 25.7 | 4.66 | 1.29
9 | COc1cc2c3c(n(CCCCOC(=O)C(F)(F)F)c(=O)c2cc1OC)-c1cc2c(cc1C3=O)OCO2 | > 100 | > 100 | > 100 | > 100 | > 100 | > 100 | > 100 | > 100 | > 100 | > 100 | > 52.6 | > 100 | > 100 | > 48.8 | > 100 | > 48.3 | > 26.3 | > 100 | 5.01 | > 100
10 | Cn1cc(C2=C(c3cccc4ccccc34)C(=O)NC2=O)c2ccccc21 | 19 | > 25 | > 25 | > 25 |  | > 25 | > 24.1 | > 25 | 24.5 | > 22.6 | 7.17 | 12.2 | 9.45 | 5.7 |  | 7.48 | 11.2 | 7.38 | 8.3 | 7.3
11 | O=C1NN(c2ccc(C(=O)O)cc2)C(=O)/C1=C\c1ccc([N+](=O)[O-])o1 | > 100 | > 100 | 47.3 | 50.5 | > 100 | 55.3 | 52.6 | > 100 | 61.8 | > 100 | 51.1 | > 100 | 20 | 22.4 | > 100 | 24.4 | 20.5 | 59.1 | 22.7 | > 100
12 | COc1ccc2c(c1)c(-c1ccc(-c3cn(S(=O)(=O)c4ccccc4)c4ccc(OC)cc34)s1)cn2S(=O)(=O)c1ccccc1 |  | > 100 | > 100 | > 100 | > 100 | > 100 | > 100 | > 100 | > 100 | > 100 |  | > 100 | > 100 | > 100 | > 100 | > 100 | > 100 | > 100 | > 100 | > 100
13 | Oc1ccc(-c2nnc3sc(-c4ccc(F)c(Oc5ccccc5)c4)nn23)cc1 | > 100 | > 100 | > 100 | > 100 | > 100 | 78.3 | > 100 | > 100 | > 100 | > 100 | 28.3 | 73.2 | 83 | 14.6 | 34.8 | 22.7 | 47.4 | 5.62 | > 100 | 45.7
14 | Cc1nn(-c2nc3ccccc3s2)c(C)c1Oc1ccccc1O | 25.8 | 18.9 | 17.6 | 24.6 | 22.3 | 22.8 | 35.8 | 18.6 | 47.8 | 20.1 | 8.04 | 5.73 | 4.79 | 4.19 | 10.4 | 10.1 | 12.6 | 4.44 | 5.14 | 6.99
15 | CCCN(CCC)C(=O)C1=Cc2ccc(-c3ccc(C(=O)N4CCCC4)cc3)cc2N=C(N)C1 | 68.5 | 35.8 | 31.8 | 15.3 | 57.1 | 50.9 | 54.8 | 32.8 | 74.4 | 21.4 | 16.1 | 14.4 | 7.1 | 3.32 | 11.8 | 8.13 | 14.4 | 9.15 | 10.6 | 5.01
16 | COc1cc(-c2nc(Nc3nc4ccccc4[nH]3)nc(N)c2C#N)cc(OC)c1OC | > 100 | > 100 | 26.1 | > 33.8 | > 100 | > 100 | > 54 | > 100 | > 100 | > 100 | 28.9 | > 40.8 | 1.85 | 0.503 | 41.4 | 14.5 | 6.2 | 85.7 | 6.17 | 0.714
17 | COc1cc(C(=O)c2ccc3c(c2)OCO3)cc(OC)c1OC | > 100 | > 100 | > 100 | > 100 | > 100 | > 100 | > 45.5 | 38.2 | > 75.3 | 80.8 | 5.55 | 9.73 | 0.621 | 0.824 | 3.77 | 8.37 | 1.45 | 2.93 | 2.46 | 0.656
18 | Cn1ccnc1C(=O)/C=C/c1ccc(C(=O)Nc2ccc(Cl)cc2)cc1 | > 33.3 | 1.43 |  | 24.1 | 22 | 1.24 | 2.62 | 4.34 | 2.71 |  | 1.01 | 0.655 |  | 0.899 | 2.34 | 0.62 | 0.855 | 0.905 | 0.783 | 
19 | COC(=O)Nc1nc2ccc(Oc3ccc(NC(=O)Nc4cccc(C(=O)O)c4)cc3)cc2[nH]1 | > 25 | > 25 | > 25 | 24.3 | > 25 | > 25 | > 25 | > 25 | > 25 | > 21.2 | 9.4 | 8.44 | 7.43 | 4.73 | > 23 | 16.9 | 12.7 | 15.7 | 7.02 | 5.26
20 | COc1ccc2nc(-c3cc(-c4cc(OC)c(OC)c(OC)c4)n[nH]3)[nH]c2c1 | 3.2 | 10.6 | 11.1 | 6.66 |  | 10.7 | 7.11 | 4.11 | 4.12 | 3.69 | 1.15 | 3.03 | 2.89 | 2.15 |  | 2.63 | 1.9 | 1.57 | 1.29 | 1.7
21 | CC1=C[C@H]2c3c(c(O)c(O)c4oc5c(C)cccc5c(=O)c34)[C@H](c3cc(O)c(O)c4oc5c(C)cccc5c(=O)c34)[C@H]2C(C)(C)C1 | 17.4 | 3.47 | 10 | 6.3 | 11 | 10.7 | 5.69 | 2.78 | 10.4 | 8.33 | 1.7 | 1.45 | 1.93 | 2 | 2.34 | 2.31 | 1.39 | 1.23 | 0.65 | 2.56
22 | Cn1nccc1Nc1nccc(-c2cc3c(s2)C(C)(C)N(CCN2CCOCC2)C3=O)n1 | > 100 | > 100 | > 100 | > 100 | > 100 | > 100 | > 100 | > 100 | > 100 | > 100 | 24.3 | 0.602 | 1.22 | 24.1 | 3.1 | 9.53 | 2.15 | 3.76 | 23.4 | 7.86
23 | CC1=CC(=NC(=O)CBr)C=C/C1=N\S(=O)(=O)c1ccccc1 | 11.1 | 31.3 | 10.1 | 4.37 |  | 8.98 | 12.1 | 12.6 | 8.16 | 31.2 | 3.29 | 16.5 | 3.03 | 1.8 |  | 2.77 | 3.1 | 2.77 | 2.45 | 16.8
24 | CC[C@H](C)[C@H]1NC(=O)[C@@H](N[C@](C)(O)[C@@H](N)CC(C)C)[C@@H](C)OC(=O)[C@H](Cc2ccc(OC)cc2)N(C)C(=O)[C@@H]2CCCN2C(=O)[C@H](CC(C)C)NC(=O)[C@@H](C)C(=O)[C@H](C(C)C)OC(=O)C[C@@H]1O | 0.355 | 0.361 | 6.06 | 0.166 |  | 2.67 | 0.413 | 3.31 | 0.232 | 0.829 | 0.0161 | 0.0197 | 0.0167 | 0.00735 |  | 0.0428 | 0.0133 | 0.343 | 0.0113 | < 0.0108
25 | C[C@@H]1CN(C(=O)c2ccc(NC(=O)c3cc(O[C@H](C)c4c(Cl)ccc(F)c4Cl)c(N)nn3)cc2)C[C@H](C)N1 | 19.7 | 29.1 | 12.6 | 12.6 | 21.3 |  | 20.4 | 14 | 12 | 13.5 | 7.16 | 14.5 | 2.29 | 0.567 | 5.66 |  | 4.38 | 3.26 | 1.78 | 0.0558
